Test results from ChEMBL document CHEMBL1201862, “PubChem BioAssay data set” (2004).
Active and inactive are the calls of the source.

What was measured:
[1] = target: T1, Tyrosine-protein phosphatase non-receptor type 7 (Homo sapiens, UniProt P35236); experiment: Dose Response confirmation of compounds that inhibit HePTP. [Related pubchem assays (depositor defined):AID1059, AID1661, AID2085]; type: functional
T1 sequence (P35236 whole entry): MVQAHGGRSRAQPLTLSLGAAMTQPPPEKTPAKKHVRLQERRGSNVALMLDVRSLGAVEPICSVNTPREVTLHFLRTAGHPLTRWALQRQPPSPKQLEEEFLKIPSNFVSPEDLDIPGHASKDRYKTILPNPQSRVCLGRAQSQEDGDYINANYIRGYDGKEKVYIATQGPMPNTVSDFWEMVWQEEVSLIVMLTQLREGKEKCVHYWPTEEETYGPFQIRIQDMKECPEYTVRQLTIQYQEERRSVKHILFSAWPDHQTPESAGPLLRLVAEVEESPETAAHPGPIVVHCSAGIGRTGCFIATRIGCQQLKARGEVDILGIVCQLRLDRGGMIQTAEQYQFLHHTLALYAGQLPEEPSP

[2] = target: T2, Dual specificity protein phosphatase 3 (Homo sapiens, UniProt P51452); experiment: SAR VHR1 Fluorescent Assay for In Vitro dose response studies Set 3. [Related pubchem assays (depositor defined):AID1654, AID1661, AID1878]; type: functional
T2 sequence (P51452 whole entry): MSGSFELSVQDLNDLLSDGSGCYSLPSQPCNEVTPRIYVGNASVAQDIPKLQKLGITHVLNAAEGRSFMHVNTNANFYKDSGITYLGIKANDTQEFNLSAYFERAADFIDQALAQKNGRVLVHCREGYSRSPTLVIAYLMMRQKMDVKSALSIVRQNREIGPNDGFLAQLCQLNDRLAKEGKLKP

Cytochrome P450 3A4 = Cytochrome P450 3A4 (Homo sapiens, UniProt P08684);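 also: CYP3A4 tested as one member of a cytochrome P450 panel screen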
Chain of Cytochrome P450 3A4 (P08684 whole entry): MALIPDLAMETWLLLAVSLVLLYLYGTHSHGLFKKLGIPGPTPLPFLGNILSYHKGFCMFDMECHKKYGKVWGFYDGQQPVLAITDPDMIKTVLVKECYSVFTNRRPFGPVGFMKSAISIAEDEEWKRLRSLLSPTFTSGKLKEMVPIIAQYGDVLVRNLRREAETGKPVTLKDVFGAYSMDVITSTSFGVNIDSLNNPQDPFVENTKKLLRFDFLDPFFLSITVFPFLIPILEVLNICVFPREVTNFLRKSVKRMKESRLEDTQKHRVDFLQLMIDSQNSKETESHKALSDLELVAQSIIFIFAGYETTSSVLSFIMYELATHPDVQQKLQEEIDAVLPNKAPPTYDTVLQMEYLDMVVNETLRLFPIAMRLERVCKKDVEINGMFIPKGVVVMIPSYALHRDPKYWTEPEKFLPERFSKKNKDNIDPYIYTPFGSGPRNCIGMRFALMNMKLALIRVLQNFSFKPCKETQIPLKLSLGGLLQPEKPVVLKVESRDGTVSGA

[3] = target: T2, Dual specificity protein phosphatase 3; experiment: Dose Response Confirmation of compounds that inhibit VHR1 in Fluorescent Assay. [Related pubchem assays (depositor defined):AID1661, AID1878]; type: functional
Cytochrome P450 2C19 = Cytochrome P450 2C19 (Homo sapiens, UniProt P33261); experiment: Cytochrome panel assay with activity outcomes. Panel member name: p450-cyp2c19 Compounds with AC50 equal or less than 10 uM are considered active; type: functional; conditions: read-out: AC50
Chain of Cytochrome P450 2C19 (P33261 whole entry): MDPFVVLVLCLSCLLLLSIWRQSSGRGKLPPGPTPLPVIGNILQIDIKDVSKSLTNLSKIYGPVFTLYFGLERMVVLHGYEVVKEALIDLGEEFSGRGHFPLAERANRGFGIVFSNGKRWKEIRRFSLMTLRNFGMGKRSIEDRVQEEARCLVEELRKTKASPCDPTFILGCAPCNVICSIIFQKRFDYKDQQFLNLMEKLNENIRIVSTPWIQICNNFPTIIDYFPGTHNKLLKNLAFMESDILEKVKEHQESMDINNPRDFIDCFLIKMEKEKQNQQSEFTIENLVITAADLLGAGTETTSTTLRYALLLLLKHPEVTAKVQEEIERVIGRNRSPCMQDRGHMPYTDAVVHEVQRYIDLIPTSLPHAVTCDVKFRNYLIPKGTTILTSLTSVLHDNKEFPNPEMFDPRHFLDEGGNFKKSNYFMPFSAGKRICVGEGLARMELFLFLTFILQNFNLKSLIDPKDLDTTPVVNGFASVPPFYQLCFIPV

Cytochrome P450 2C9 = Cytochrome P450 2C9 (Homo sapiens, UniProt P11712)
Chain of Cytochrome P450 2C9 (P11712 whole entry): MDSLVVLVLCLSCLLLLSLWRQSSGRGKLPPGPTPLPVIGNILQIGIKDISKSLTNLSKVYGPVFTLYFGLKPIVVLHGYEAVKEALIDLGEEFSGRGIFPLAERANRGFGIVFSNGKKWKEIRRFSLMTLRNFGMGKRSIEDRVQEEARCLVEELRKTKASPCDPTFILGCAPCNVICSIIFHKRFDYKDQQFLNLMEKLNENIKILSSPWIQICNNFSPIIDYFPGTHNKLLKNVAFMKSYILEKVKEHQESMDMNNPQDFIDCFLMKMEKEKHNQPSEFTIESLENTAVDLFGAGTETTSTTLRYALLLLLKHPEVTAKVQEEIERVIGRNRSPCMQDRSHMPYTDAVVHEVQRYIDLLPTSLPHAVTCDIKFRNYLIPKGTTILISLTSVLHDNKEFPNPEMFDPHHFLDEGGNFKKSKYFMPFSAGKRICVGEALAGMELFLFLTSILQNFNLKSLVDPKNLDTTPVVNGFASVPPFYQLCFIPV

Cytochrome P450 1A2 = target: T3, Cytochrome P450 1A2 (Homo sapiens, UniProt P05177);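 also: PubChem cytochrome P450 panel assay, CYP1A2 panel member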
T3 sequence (P05177 whole entry): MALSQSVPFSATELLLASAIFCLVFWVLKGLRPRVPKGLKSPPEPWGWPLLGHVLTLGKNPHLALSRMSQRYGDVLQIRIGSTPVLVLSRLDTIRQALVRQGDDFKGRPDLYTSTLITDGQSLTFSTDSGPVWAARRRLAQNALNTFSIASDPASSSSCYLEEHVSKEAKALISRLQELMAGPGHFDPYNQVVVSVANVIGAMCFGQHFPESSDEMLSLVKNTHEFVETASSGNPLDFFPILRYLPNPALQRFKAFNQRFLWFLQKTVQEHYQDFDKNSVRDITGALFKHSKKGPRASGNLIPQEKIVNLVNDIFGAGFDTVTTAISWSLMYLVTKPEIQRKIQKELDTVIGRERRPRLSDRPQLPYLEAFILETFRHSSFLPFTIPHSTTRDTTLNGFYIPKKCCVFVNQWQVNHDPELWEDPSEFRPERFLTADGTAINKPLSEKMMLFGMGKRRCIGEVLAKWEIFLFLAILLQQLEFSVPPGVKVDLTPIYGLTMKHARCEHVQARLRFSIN

[4] = target: T4, Tyrosine-protein phosphatase non-receptor type 22 (Homo sapiens, UniProt Q9Y2R2); experiment: SAR LYP1 Fluorescent Assay using pCAP substrate for In Vitro dose response studies - Set 2. [Related pubchem assays (depositor defined):AID1779, AID1784, AID2135, AID449727]; type: functional
T4 sequence (Q9Y2R2 whole entry): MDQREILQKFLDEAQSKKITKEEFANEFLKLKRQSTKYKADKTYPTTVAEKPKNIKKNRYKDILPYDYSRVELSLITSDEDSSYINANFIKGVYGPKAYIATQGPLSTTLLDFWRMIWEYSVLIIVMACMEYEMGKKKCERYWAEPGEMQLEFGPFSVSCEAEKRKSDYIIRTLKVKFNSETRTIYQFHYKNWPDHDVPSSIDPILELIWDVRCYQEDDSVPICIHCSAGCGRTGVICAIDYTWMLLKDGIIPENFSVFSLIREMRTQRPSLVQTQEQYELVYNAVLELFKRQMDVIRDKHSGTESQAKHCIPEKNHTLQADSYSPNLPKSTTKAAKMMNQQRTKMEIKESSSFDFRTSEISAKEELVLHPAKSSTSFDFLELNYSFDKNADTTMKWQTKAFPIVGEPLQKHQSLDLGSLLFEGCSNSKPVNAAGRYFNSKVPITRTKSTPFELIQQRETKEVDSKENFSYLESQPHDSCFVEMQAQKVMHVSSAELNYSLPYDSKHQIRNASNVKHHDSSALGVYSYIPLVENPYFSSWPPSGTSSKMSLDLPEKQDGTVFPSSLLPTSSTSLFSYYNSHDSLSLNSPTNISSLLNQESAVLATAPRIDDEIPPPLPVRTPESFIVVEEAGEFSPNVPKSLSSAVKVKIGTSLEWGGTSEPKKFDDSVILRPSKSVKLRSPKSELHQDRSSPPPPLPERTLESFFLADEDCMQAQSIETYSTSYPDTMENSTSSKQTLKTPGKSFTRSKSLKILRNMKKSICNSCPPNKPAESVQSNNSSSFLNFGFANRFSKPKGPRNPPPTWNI

[5] = target: T4, Tyrosine-protein phosphatase non-receptor type 22; experiment: SAR LYP1 Fluorescent Assay using OMFP substrate for In Vitro dose response studies - Set 3. [Related pubchem assays (depositor defined):AID1779, AID1784, AID2140, AID2686]; type: functional
[6] = target: T5, Carboxy-terminal domain RNA polymerase II polypeptide A small phosphatase 1 (Homo sapiens, UniProt Q9GZU7); experiment: CTDSP1 inhibitors, concentration-response, biochemical, absorbance readout, ultra-high-throughput screen actives (AID 540297); type: functional
T5 sequence (Q9GZU7 whole entry): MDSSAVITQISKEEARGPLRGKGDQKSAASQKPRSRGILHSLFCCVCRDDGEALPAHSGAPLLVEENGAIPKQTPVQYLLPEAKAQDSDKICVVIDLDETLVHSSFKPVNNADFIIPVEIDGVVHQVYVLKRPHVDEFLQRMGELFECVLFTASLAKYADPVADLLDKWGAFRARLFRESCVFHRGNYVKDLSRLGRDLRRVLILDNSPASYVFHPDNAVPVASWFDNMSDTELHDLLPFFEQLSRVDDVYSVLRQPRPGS

[7] = target: T4, Tyrosine-protein phosphatase non-receptor type 22; experiment: inhibition of lymphoid tyrosine phosphatase LYP – biochemical, pCAP fluorogenic substrate, fluorescence, set 3, SAR follow-up (AID 449727); type: functional
[8] = target: T1, Tyrosine-protein phosphatase non-receptor type 7; experiment: inhibition of hematopoietic tyrosine phosphatase HePTP – biochemical, set 2, SAR follow-up (AID 449736); type: functional
[9] = target: Tyrosine-protein phosphatase non-receptor type 12 (Homo sapiens, UniProt Q05209); experiment: SAR Selectivity Analysis of small molecule inhibitors of PEST using pCAP in a fluorescence assay. [Related pubchem assays (depositor defined):AID1779, AID1784, AID2135]; type: functional
Chain of Tyrosine-protein phosphatase non-receptor type 12 (Q05209 whole entry): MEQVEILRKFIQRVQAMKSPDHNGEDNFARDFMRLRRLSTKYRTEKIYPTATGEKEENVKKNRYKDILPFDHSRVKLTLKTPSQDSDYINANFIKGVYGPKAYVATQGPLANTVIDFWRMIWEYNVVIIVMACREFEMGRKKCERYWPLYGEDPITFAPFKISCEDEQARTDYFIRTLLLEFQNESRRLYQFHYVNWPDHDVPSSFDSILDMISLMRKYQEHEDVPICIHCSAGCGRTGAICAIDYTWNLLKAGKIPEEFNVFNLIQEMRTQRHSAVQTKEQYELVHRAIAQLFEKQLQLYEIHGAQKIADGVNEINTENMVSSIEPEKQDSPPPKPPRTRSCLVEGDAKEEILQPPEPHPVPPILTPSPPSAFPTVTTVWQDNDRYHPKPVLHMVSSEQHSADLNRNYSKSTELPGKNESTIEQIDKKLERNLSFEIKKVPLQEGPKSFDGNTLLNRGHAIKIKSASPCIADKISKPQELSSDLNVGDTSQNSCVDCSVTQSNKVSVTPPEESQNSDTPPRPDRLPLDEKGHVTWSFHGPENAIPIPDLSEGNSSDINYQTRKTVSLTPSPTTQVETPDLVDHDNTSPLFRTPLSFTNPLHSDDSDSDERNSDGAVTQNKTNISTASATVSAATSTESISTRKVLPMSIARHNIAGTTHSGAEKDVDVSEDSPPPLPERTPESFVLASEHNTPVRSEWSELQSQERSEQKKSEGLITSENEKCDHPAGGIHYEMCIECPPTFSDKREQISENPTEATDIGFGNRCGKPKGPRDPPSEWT

[10] = target: T4, Tyrosine-protein phosphatase non-receptor type 22; experiment: SAR LYP1 Fluorescent Assay using OMFP substrate for In Vitro dose response studies - Set 2. [Related pubchem assays (depositor defined):AID1779, AID1784, AID2140, AID449726, AID488869]; type: functional
J774.A1 = experiment: Confirmation of image-based Screening Assay for Inhibitors of Phagocytosis. [Related pubchem assays (depositor defined):AID1029, AID1643]; type: functional, cell-based; conditions: Mus musculus
[11] = protection from phage-mediated lysis, alamar blue read-out – E. coli UTI89, K1F phage, bacterial capsule biogenesis inhibitors (AID 488966); type: functional

SMILES: Cc1ccc(-c2nc3ccccc3s2)cc1NC(=O)c1cc(-n2cnnc2)ccc1Cl
- IC50 [1]: 4690 nM (active)
- IC50 [2]: 3690 nM (active)
- AC50 (Cytochrome P450 3A4): 891 nM (inconclusive)
- IC50 [3]: 2210 nM (active)
- AC50 (Cytochrome P450 2C19): 794 nM (inconclusive)
- AC50 (Cytochrome P450 2C9): 2510 nM (inconclusive)
- AC50 (Cytochrome P450 1A2): 2240 nM (inconclusive)

SMILES: N#C/C(=C\c1ccc(OCc2ccc(Br)cc2)cc1)C(=O)Nc1cccc(C(=O)O)c1
- IC50 [4]: 3500 nM (active)
- IC50 [5]: 925 nM (active)
- IC50 [6]: 1830 nM (active)
- IC50 [7]: 3370 nM (active)
- IC50 [8]: 343 nM (active)
- IC50 [9]: 714 nM (active)
- IC50 [10]: 1940 nM (active)

SMILES: COc1ccccc1-c1nnc2sc(-c3cc4ccccc4o3)nn12
- IC50 (J774.A1): > 25000 nM (inactive)

SMILES: Cc1cc(NCCN)nc2ccccc12
- IC50 [11]: > 300000 nM (active)
